The values below come from patent publication US20250161233A1, “VINYLATION COUPLED DERIVATIVE OF BETA-ELEMENE, AND PREPARATION METHOD AND USE THEREOF IN PREPARATION OF ANTITUMOR DRUG” (HANGZHOU NORMAL UNIVERSITY, priority 2022, published 2025).

Structures are written as SMILES.

Assay [1] relates to Human colon cancer cells (HCT116). The experiment in a line: Tumor cell proliferation inhibition (CCK-8), HCT116. The format is cell-based. As to conditions: for inhibition at 100 µM: HCT-116, 100 μM of the compound, read-out: Anti-proliferative activity at 100 μM by concentration (%) HCT116 (tumor cell inhibition rate). As to the method:
(§1) Human colon cancer cells (HCT116), human lung cancer cells (A549).
(§2) 1) The test cells in a logarithmic growth phase were trypsinized and counted, inoculated in a 96-well culture plate at a concentration of 5×10^4/mL, 100 μL per well (5×10^3 cells per well), and incubated at 37° C. in a 5% CO2 incubator for 24 h.
(§3) 2) A drug to be tested was diluted to different concentrations with McCoy'S 5A or RPMI 1640 complete medium. The experimental group was replaced with a culture solution containing different concentrations of the tested samples, and the control group was replaced with a culture solution containing the same volume of solvent (DMSO). Three parallel wells were set up in each group, and the culture was continued for 48 h in a 5% CO2 incubator at 37° C.
(§4) HCT116 cells used the McCoy'S 5A complete medium, and A549 cells used the RPMI 1640 complete medium.
(§5) 3) 10 μL of a CCK-8 solution was added to each well, incubated at 37° C. for 1 h to 4 h, and an absorbance (OD value) of each well at 490 nm was measured with a microplate reader.
(§6) 4) A survival rate and an inhibition rate were calculated with the following formulas:
(§7) Cell survival rate=[(As−Ab)/(Ac−Ab)]×100%
(§8) Inhibition rate=[(Ac−As)/(Ac−Ab)]×100%
(§9) An S-type dose-survival curve was plotted using GraphPad Prism 7.0 software and a nonlinear regression model, and IC50 values were calculated. • As: absorbance of the experimental well (medium containing cells, CCK-8, and the drug to be tested) • Ac: absorbance of control wells (medium containing cells, CCK-8, and solvent (DMSO)) • Ab: absorbance of blank wells (medium without cells and drug to be tested, CCK-8)

Assay [2] concerns human lung cancer cells (A549). The experiment in a line: Tumor cell proliferation inhibition (CCK-8), A549. It is filed as cell-based. As to conditions: 48 h; for inhibition at 100 µM: read-out: Anti-proliferative activity at 100 μM by concentration (%) A549 (tumor cell inhibition rate). The method, then: as §1, §2, §3, §4, §5, §6, §7, §8, §9
[3] abbreviates: Homo sapiens, 100 μM of the compound.

Turning to `C=C[C@]1(C)CC[C@@H](C(=C)C/C=C/c2ccc(C(=O)OCC[C@@H](C)CCC=C(C)C)cc2)C[C@H]1C(=C)C` [Compound 6], the inhibition at 100 µM was 21.7 ± 0.8% in assay [1] (Homo sapiens, 48 h) and 14.4 ± 0.5% in assay [2] (setting [3]).

Consider `C=C[C@]1(C)CC[C@@H](C(=C)C)C[C@H]1C(=C)C` [β-elemene, reference compound], for which the “Anti-proliferative activity at 100 μM by concentration (%) HCT116 (tumor cell inhibition rate)” value in assay [1] (100 μM of the compound, 48 h) is given as 0.6 ± 0.5%. The IC50 (usually the concentration that gives 50% inhibition) in assay [1] (48 h) was 782 ± 51 µM; in assay [2], 227 ± 1.2 µM. Also, in assay [2] (100 μM of the compound), the “Anti-proliferative activity at 100 μM by concentration (%) A549 (tumor cell inhibition rate)” value is listed as 10.6 ± 0.5%.

Consider `C=C[C@]1(C)CC[C@@H](C(=C)C/C=C/c2ccc(C(=O)OCCOc3ccc(/C(=C(/CCCl)c4ccccc4)c4ccccc4)cc3)cc2)C[C@H]1C(=C)C` [Compound 10], for which the inhibition at 100 µM was 13.5 ± 0.3% in assay [1] (Homo sapiens, 48 h) and 40.4 ± 0.6% in assay [2] (setting [3]).

As to `C=C[C@]1(C)CC[C@@H](C(=C)C/C=C/c2ccc(-n3cncn3)cc2)C[C@H]1C(=C)C` [Compound 4], the inhibition at 100 µM worked out at 99.8 ± 0.08% in assay [1] (Homo sapiens, 48 h) and 97.5 ± 0.4% in assay [2] (setting [3]). The 50% inhibitory concentration (IC50) in assay [1] (Homo sapiens, HCT-116, 48 h) worked out at 50.9 ± 0.8 µM; in assay [2] (Homo sapiens) it was 57.2 ± 2.95 µM.
